2 compounds from ChEMBL document CHEMBL3352758, “Structural Analysis of the Binding of Type I, I1/2, and II Inhibitors to Eph Tyrosine Kinases” (ACS Med Chem Lett, 2015) can be followed below.

The target of the assay is T1, Ephrin type-B receptor 4 (Homo sapiens, UniProt P54760).
T1 sequence (P54760 whole entry): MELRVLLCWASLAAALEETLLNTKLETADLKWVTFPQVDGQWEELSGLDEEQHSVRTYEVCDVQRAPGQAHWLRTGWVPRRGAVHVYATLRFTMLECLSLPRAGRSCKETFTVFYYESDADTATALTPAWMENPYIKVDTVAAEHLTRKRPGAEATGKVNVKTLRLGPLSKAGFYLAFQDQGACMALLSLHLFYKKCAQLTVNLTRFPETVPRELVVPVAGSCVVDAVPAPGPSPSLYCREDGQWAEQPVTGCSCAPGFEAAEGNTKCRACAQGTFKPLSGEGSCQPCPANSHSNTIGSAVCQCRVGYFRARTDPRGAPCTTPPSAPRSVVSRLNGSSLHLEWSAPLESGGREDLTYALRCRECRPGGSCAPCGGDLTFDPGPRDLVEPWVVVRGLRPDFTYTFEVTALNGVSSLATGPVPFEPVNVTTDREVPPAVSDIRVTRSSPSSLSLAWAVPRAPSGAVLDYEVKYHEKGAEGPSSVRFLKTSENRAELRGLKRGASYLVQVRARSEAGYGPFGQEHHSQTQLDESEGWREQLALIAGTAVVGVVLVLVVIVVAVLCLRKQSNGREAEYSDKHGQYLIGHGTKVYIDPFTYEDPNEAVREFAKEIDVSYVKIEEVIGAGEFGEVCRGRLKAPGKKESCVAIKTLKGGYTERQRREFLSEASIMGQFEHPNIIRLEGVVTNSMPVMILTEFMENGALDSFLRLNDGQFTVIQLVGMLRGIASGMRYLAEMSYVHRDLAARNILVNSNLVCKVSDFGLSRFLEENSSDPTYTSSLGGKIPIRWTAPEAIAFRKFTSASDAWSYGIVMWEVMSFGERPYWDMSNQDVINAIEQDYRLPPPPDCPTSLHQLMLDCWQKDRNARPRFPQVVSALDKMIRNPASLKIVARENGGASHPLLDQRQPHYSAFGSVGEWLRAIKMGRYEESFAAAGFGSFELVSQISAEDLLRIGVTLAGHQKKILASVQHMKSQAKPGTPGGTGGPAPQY
Nature of the assay: Inhibition of EphB4 (unknown origin) by FRET-based enzymatic assay in presence of 30 uM ATP.

Take `Cc1ccc(-c2csc(NC(=O)CCCC(=O)O)c2C(N)=O)cc1C`: the IC50 (read-out: IC50) came out at 8 µM.

Consider `Cc1ccc(-n2nc(C(C)(C)C)cc2NC(=O)Nc2ccc(OCCN3CCOCC3)c3ccccc23)cc1` [DORAMAPIMOD], for which the IC50 result is reported as “Not Active”.

Broadly, the IC50 is the midpoint of a concentration-inhibition curve.
